For series [1], the target named is T1, CYP2D6 (Homo sapiens, UniProt P10635). In words: biochemical.
In series [2] the target is T2, CYP3A4 (Homo sapiens, UniProt P08684). In words: Microsomal inhibition study, inhibition of midazolam metabolism (Example 1). Conditions: read-out: 3A4 Affinity (IC50), Table 2.
The target of series [3] is T1, CYP2D6. In words: Microsomal inhibition study, inhibition of bufuralol metabolism (Example 1). Conditions: read-out: 2D6 Affinity (IC50), Table 2.
From the text: The degree of a given molecule's metabolism by and affinity for CYP2D6 and other CYP isoforms may be assessed by any techniques known in the art, including through the use of Bactosomes™ or by microsomal inhibition studies. In vitro metabolism studies using Bactosomes™ expressing individual human CYP isoforms monitor the extent to which a test compound is metabolized by a single CYP450 enzyme and allow identification of the CYP isoforms that may be responsible for the metabolism of a test compound. […] These techniques can be used to assess the metabolism and affinity of not only the unconjugated version of a CYP2D6 bioactive drug but conjugated versions as well.
Series [4] has as its target T1, CYP2D6.
Series [5] addresses T2, CYP3A4. Conditions: microsomes.
Series [6] deals with T2, CYP3A4.
Where [7] appears, read: read-out: CYP2D6 Inhibition of dextromethorphan O-demethylation IC50, human liver microsomes 0.1 mg/mL, test compound 0.1-25 μM, 5 minutes.
Where [8] appears, read: read-out: CYP3A4 Inhibition of testosterone 6β-hydroxylation IC50, human liver microsomes 0.1 mg/mL, test compound 0.1-25 μM, 5 minutes.

Where a name gives a salt, the structure may show the parent alone. Read-outs that look alike come from different tables or passages of the source.

The source of these data is patent US11033631B2, “Methods of treating CYP2D6 alternative metabolizers” (Nektar Therapeutics, priority 2008, dated 2021).

One may read the IC50 as the concentration that gives 50% inhibition.

T2 sequence (P08684 whole entry): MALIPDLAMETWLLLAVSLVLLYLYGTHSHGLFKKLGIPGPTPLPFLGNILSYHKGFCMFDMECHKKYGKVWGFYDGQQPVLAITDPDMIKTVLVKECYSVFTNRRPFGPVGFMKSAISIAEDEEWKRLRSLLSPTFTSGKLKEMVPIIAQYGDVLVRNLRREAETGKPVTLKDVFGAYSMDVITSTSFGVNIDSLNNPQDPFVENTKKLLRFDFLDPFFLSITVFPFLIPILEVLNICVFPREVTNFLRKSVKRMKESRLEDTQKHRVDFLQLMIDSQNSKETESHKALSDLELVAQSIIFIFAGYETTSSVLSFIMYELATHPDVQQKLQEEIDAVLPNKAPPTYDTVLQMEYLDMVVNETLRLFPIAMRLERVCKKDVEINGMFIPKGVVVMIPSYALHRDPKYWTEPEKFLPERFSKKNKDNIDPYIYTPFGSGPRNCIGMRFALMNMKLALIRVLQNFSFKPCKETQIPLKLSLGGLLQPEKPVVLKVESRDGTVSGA
T1 sequence (P10635 whole entry): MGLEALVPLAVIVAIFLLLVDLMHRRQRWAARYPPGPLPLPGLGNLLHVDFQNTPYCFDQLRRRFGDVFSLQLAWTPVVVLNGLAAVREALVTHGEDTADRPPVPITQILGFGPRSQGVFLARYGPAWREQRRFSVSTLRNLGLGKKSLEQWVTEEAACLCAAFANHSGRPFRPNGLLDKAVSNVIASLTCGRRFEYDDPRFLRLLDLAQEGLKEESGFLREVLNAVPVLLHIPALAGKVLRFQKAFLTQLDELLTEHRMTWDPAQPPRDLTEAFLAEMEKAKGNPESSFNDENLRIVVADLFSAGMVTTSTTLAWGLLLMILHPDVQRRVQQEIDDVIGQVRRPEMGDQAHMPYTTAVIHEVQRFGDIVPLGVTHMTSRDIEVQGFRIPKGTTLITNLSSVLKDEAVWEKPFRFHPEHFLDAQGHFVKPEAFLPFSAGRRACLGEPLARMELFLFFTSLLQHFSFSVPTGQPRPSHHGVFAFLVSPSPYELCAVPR

`N=C(N)N1CCc2ccccc2C1` [Debrisoquine sulfate]: in series [1], the IC50 is 19.5 µM.

Consider `COCCOCCOCCOCCOCCN1CCN(C(c2ccccc2)c2ccc(Cl)cc2)CC1` (stereo not drawn) [PEG-3-HZ, mPEG3-hydroxyzine], for which the concentration for half-maximal inhibition (IC50) was determined as 17.8 µM in series [2], 10.3 µM in series [3] and 9.7 µM in series [4] (setting [7]).

Regarding `COCCOCCOCCOCCOCCOCCOCCN1CCN(C(c2ccccc2)c2ccc(Cl)cc2)CC1` (stereo not drawn) [PEG-5-HZ, mPEG5-hydroxyzine], the half-inhibitory concentration (IC50) in series [5] was 7.9 µM; in series [6] (setting [8]), over 25 µM; in series [2] it was 15.4 µM; in series [3], 11.7 µM; in series [4] (setting [7]), 11.5 µM.

With `CC(C)NCC(O)COc1cccc2ccccc12` (stereo not drawn) [Propranolol hydrochloride, reference compound], the IC50 in series [5] is over 25 µM; in series [6] (microsomes), 13.1 µM; in series [4] (microsomes), 7.5 µM.

For `COCCOCCOCCN(C)CCOC(c1ccccc1)c1ccccc1` [mPEG3-N-diphenhydramine], the IC50 in series [5] was 16.4 µM; in series [6] (setting [8]), over 25 µM; in series [4] (microsomes), 2.6 µM.

With `COCCOCCOCCNCCCN1c2ccccc2CCc2ccccc21` [mPEG3-NH-desipramine], the 50% inhibitory concentration (IC50) in series [5] is 17.9 µM; in series [6] (setting [8]), over 25 µM; in series [4] (setting [7]), 1.47 µM.

Take `COCCOCCOCCOCCN(C)CCOC(c1ccccc1)c1ccccc1` [mPEG4-N-diphenhydramine]: the half-maximal inhibitory concentration (IC50) in series [5] is 13.1 µM; in series [6] (setting [8]), over 25 µM; in series [4] (microsomes), 9.2 µM.

For the compound `COCCOCCOCCOCCOCCOCCOCCNCCCN1c2ccccc2CCc2ccccc21` [mPEG7-NH-desipramine], the IC50 was 9.51 µM in series [5], over 25 µM in series [6] (setting [8]) and over 25 µM in series [4] (setting [7]).
